Measured values taken from patent US5939413A, “Piperazine derivatives” (Fujisawa Pharmaceutical Co., Ltd., priority 1995, dated 1999).
Where a name gives a salt, the structure may show the parent alone. Read-outs that look alike come from different tables or passages of the source.

Target: T1, h-NK1 receptors (Homo sapiens, UniProt P25103)
T1 construct: expressed in transfected cells; host or cells: CHO cells, permanently expressing; crude membranes
Assay: 125I-BH-Substance P binding to h-NK1 receptors
Conditions: read-out: inhibition rate of 125I-BH-Substance P binding to h-NK1 receptors
Description: (a) Crude CHO cell membrane preparation
CHO cells permanently expressing h-NK1 receptors were harvested and homogenized with a Dounce homogenizer at 4° C. in a buffer (0.25 M sucrose, […] Tris-HCl pH 7.4, 10 mM MgCl2, 1 mM EDTA, 5 μg/ml p-APMSF). The homogenate was centrifuged (500×g, 10 minutes), and the pellet was resuspended in the same buffer, homogenized, and centrifuged. The two supernatants were combined and centrifuged (100,000×g, 1 hour). The crude cell membranes thus isolated were resuspended in buffer (25 mM Tris-HCl pH 7.4, 10 mM MgCl2, 1 mM EDTA, 5 μg/ml p-APMSF) and stored at -80° C. until use.
At the end of the incubation period, the content was quickly filtered over a Wahtman GF/C glass filter (pretreated with 0.1% polyethylene imine for 3 hours prior to use) under aspiration. Each of the filters was then washed four times with 5 ml of buffer (50 mM Tris-HCl pH 7.4, 5 mM MnCl2). […] All data presented are specific binding defined as that displaceable by 3 μM unlabeled Substance P.

[1] = test compound at 0.1 μg/ml, crude membranes of CHO cells expressing h-NK1 receptors

T1 sequence (P25103 whole entry): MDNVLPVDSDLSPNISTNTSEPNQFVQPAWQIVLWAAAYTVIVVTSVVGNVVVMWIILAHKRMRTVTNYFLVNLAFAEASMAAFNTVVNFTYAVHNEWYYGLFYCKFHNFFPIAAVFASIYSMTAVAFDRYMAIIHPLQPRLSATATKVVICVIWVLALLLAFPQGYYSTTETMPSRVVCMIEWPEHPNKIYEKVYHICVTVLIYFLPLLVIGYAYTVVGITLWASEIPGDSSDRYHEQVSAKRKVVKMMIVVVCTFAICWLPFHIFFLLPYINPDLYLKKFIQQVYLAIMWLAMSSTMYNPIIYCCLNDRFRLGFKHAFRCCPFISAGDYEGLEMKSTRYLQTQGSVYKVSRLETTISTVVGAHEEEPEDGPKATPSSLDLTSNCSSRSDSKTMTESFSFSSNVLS

Row | Structure (SMILES) | inhibition at 0.1 µg/mL [1] [%] | inhibition at 0.1 µg/mL [%]
1 | CCOC(=O)CCCN1C[C@@H](Cc2c[nH]c3ccccc23)N(C(=O)c2cc(C(F)(F)F)cc(C(F)(F)F)c2)CC1=O [Example 2, (5R)-4-[3,5-bis(trifluoromethyl)benzoyl]-1-[3-(ethoxycarbonyl)propyl]-5-(1H-indol-3-ylmethyl)piperazin-2-one] | > 90 | –
2 | CCOC(=O)CN1C[C@@H](Cc2c[nH]c3ccccc23)N(C(=O)c2cc(C(F)(F)F)cc(C(F)(F)F)c2)CC1=O [Example 3, (5R)-4-[3,5-bis(trifluoromethyl)benzoyl]-1-(ethoxycarbonylmethyl)-5-(1H-indol-3-ylmethyl)piperazin-2-one] | > 90 | –
3 | NC(=O)CN1C[C@@H](Cc2c[nH]c3ccccc23)N(C(=O)c2cc(C(F)(F)F)cc(C(F)(F)F)c2)CC1=O [Example 5, (5R)-4-[3,5-bis(trifluoromethyl)benzoyl]-1-(carbamoylmethyl)-5-(1H-indol-3-ylmethyl)piperazin-2-one] | > 90 | –
4 | CN1CCCN(C(=O)CN2C[C@@H](Cc3c[nH]c4ccccc34)N(C(=O)c3cc(C(F)(F)F)cc(C(F)(F)F)c3)CC2=O)CC1 [Example 6, (5R)-4-[3,5-bis(trifluoromethyl)benzoyl]-5-(1H-indol-3-ylmethyl)-1-[(4-methyl-1-homopiperazinyl)carbonylmethyl]-piperazin-2-one hydrochloride] | – | > 90

More lines, main results first:

Row | inhibition at 0.1 µg/mL [1] [%] | Structure (SMILES) | inhibition at 0.1 µg/mL [%]
5 | > 90 | O=C(CN1C[C@@H](Cc2c[nH]c3ccccc23)N(C(=O)c2cc(C(F)(F)F)cc(C(F)(F)F)c2)CC1=O)N1CCC(N2CCCCC2)CC1 [Example 7-1] | –
6 | > 90 | O=C(CCCN1C[C@@H](Cc2c[nH]c3ccccc23)N(C(=O)c2cc(C(F)(F)F)cc(C(F)(F)F)c2)CC1=O)N1CCC(N2CCCCC2)CC1 [Example 7-3] | –
7 | > 90 | CN1CCCN(C(=O)CCCN2C[C@@H](Cc3c[nH]c4ccccc34)N(C(=O)c3cc(C(F)(F)F)cc(C(F)(F)F)c3)CC2=O)CC1 [Example 7-4] | –
